Literature values in US20060193787A1, “Nanoparticle-based drug delivery system” (priority 2005, published 2006).

Settings: oral delivery

Bioavailability: less than 1%
Structure (SMILES): CC(=O)O[C@H]1C(=O)[C@@]2(C)[C@H]([C@H](OC(=O)c3ccccc3)[C@]3(O)C[C@H](OC(=O)[C@H](O)[C@@H](NC(=O)c4ccccc4)c4ccccc4)C(C)=C1C3(C)C)[C@]1(OC(C)=O)CO[C@@H]1C[C@@H]2O [paclitaxel]
